Patent US12215133B2 (BrightGene Bio-Medical Technology Co., Ltd., priority 2021, dated 2025)

How the values were obtained:
GIP receptor = molecular target: T1, GIP receptor (Homo sapiens, UniProt P48546); test: cAMP experiment, GIP receptor (CHO host cell line); type: cell-based; settings: CHO host cells
T1 construct: expressed in transfected cells; host or cells: CHO cell line
T1 sequence (P48546 22-466): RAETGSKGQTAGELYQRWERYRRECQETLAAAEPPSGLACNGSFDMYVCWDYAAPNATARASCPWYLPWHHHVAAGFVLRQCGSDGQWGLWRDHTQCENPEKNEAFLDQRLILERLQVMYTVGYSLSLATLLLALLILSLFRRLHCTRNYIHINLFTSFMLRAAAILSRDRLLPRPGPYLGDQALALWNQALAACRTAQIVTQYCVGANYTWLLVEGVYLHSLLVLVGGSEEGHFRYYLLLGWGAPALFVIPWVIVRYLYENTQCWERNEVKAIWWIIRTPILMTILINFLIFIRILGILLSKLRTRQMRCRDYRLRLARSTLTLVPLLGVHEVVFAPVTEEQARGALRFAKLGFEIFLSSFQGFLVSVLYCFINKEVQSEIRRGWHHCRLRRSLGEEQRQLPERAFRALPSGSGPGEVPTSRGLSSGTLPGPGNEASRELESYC

GLP-1 receptor = molecular target: T2, GLP-1 receptor (Homo sapiens, UniProt P43220); test: cAMP experiment, GLP-1 receptor (HEK293 host cell line); type: cell-based; settings: HEK293 host cells
T2 construct: expressed in transfected cells; host or cells: HEK293 cell line
T2 sequence (P43220 24-463, species assumed): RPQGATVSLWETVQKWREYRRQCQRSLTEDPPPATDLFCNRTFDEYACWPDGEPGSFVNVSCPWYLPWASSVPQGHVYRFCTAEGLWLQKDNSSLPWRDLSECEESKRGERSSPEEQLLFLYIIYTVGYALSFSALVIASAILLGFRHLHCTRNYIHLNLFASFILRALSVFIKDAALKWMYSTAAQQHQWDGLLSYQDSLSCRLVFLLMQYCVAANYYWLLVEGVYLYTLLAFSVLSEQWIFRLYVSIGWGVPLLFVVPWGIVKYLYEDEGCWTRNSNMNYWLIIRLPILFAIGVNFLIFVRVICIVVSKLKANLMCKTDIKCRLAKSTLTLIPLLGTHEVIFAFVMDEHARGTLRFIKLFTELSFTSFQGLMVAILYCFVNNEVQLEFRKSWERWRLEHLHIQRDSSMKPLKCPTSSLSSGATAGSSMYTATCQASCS

Question: Which results are given for `CC[C@H](C)[C@H](NC(=O)[C@H](CC(C)C)NC(=O)[C@H](Cc1c[nH]c2ccccc12)NC(=O)[C@H](CCC(N)=O)NC(=O)[C@@H](NC(=O)[C@H](Cc1ccccc1)NC(=O)[C@H](C)NC(=O)[C@H](CCCCN)NC(=O)[C@H](CCC(N)=O)NC(=O)[C@H](C)NC(=O)[C@@H](NC(=O)[C@H](CCCCNC(=O)COCCOCCOCCNC(=O)COCCOCCOCCNC(=O)CC[C@H](NC(=O)CCCCCCCCCCCCCCCCCCC(=O)O)C(=O)O)NC(=O)[C@H](CC(=O)O)NC(=O)[C@H](CC(C)C)NC(=O)C(C)(C)NC(=O)[C@@H](NC(=O)[C@H](CO)NC(=O)[C@H](Cc1ccc(O)cc1)NC(=O)[C@H](CC(=O)O)NC(=O)[C@H](CO)NC(=O)[C@@H](NC(=O)[C@H](Cc1ccccc1)NC(=O)[C@@H](NC(=O)CNC(=O)[C@H](CCC(=O)O)NC(=O)C(C)(C)NC(=O)[C@@H](N)Cc1ccc(O)cc1)[C@@H](C)O)[C@@H](C)O)[C@@H](C)CC)[C@@H](C)CC)C(C)C)C(=O)N[C@@H](C)C(=O)NCC(=O)NCC(=O)N1CCC[C@H]1C(=O)N[C@@H](CO)C(=O)N[C@@H](CO)C(=O)NCC(=O)N[C@@H](C)C(=O)N1CCC[C@H]1C(=O)N1CCC[C@H]1C(=O)N1CCC[C@H]1C(=O)N[C@@H](CO)C(N)=O` [BGM125, reference compound]?
Answer: EC50 (GIP receptor): 0.684 nM; EC50 (GLP-1 receptor): 0.0692 nM
